In patent US7019000B1, “Method of treating a disease condition caused or exacerbated by an HPV” (Institute of Molecular & Cell Biology, priority 1998, dated 2006):

How the values were obtained:
[1] = target: T1, binding of E6 with E6AP and E6BP (Human papillomavirus type 16, UniProt P03126); design: species or system HPV-16
T1 construct: The full length HPV16 E6 gene was amplified via polymerase chain reaction and cloned in the vector pGeX4T2; made in house; host or cells: E. coli strain AB1899
From the text: BIACORE allows real time analysis of bimolecular interactions without the need for isotopic or enzymatic labelling. BIACORE technology is based on the optical surface plasmon resonance (SPR), a technique that allows for detecting small changes in the refractive index on the surface of a thin gold film coated with a dextran matrix. Typically, one of the binding partners (termed the ligand) is covalently linked to the dextran matrix, while the other partner (termed the analyte) is introduced in a flow passing over the surface. The change in refractive index resulting from the interaction of the molecules is expressed in resonance units (RU): a SPR response of 1000 RU corresponds to a change of the surface concentration of the analyte of 1 ng protein/mm^2. GST-E6AP and GST-E6BP were used as ligands and GSTE6 was used as the analyte. […] Further controls included using the dextran matrix alone or GST as the ligand.
Binding of GST-E6 to GST-E6BP, GST-E6AP and GST was monitored by surface plasmon resonance (SPR) on a BIACORE 2000 machine (Biacore AB, Uppsala, Sweden). […] Typically 6000–10000 RU of GST, E6BP and E6AP were immobilized on three difference flowcells. Aliquots of purified HPV-16 GST-E6 (7 μM in 10 mM GSH, 50 mM Tris/PBS buffer, pH 8.2) were incubated with either 400 μM compound, or 5 mM EDTA, or 0.6% (170 mM) H2O2 for 2 hrs at room temperature. Then 10 μl of sample was injected at 1 μl/min over the three immobilized ligands using the sequential flow mode. The interactions between GST-E6 and ligands were monitored by the change of resonance signal in arbitrary units (RU).

[2] = target: T2, HPV-16-E6 (recombinant GST-E6 protein) (Human papillomavirus type 16, UniProt P03126); experiment: biochemical; assay type: biochemical
T2 construct: The full length HPV16 E6 gene was amplified via polymerase chain reaction and cloned in the vector pGeX4T2; made in house; host or cells: E. coli strain AB1899
From the text: Where the chelated metal is zinc, zinc release can be measured as an increase in the fluorescence of the zinc-selective fluorophore TSQ (N-(6-methoxy-8-quinolyl)-p-toluenesulfonamide) (18) in the presence of the protein and the active compound (TSQ assay).
In such an assay, the increase in fluorescence measured can be described as a percentage of the increase in fluorescence observed for a positive control compound which provides 100% zinc release. A suitable positive control compound is H2O2. Preferred compounds which may be useful in the present invention are those which release at least 30% of the chelated zinc as measured by the TSQ assay. Particularly preferred compounds for use in the present invention are those which release at least 40% of the chelated zinc, more preferably at least 50%.
In earlier studies, reduced glutathione (GSH) was required to elute recombinant glutathione sulfhydryl transferase E6 (recombinant (GST-E6)) protein during the purification process. However, the reducing activity of the GSH sulfhydryl groups protected GST-E6 protein from the chemical attack by agents, such as the disulphide based organic compounds of Formula (I) and (II). […] Individual assays were done in the presence of 9 μg GST-E6 protein, corresponding to a concentration of 1 μM GST-E6 protein and 2 μM bound zinc, assuming the presence of two Zn ions per protein.
Release of zinc from HPV-16-E6 was monitored by the change in fluorescence of the zinc-selective fluorophore TSQ (N-6-methoxy-8-quinolyl)-p-toluenesulfonamide), (Molecular Probes, Eugene, Oreg.) by modification of published procedures (25, 26, 27). In a total reaction volume of 200 μl, 9 μg (1 μM) recombinant GST-E6 protein (corresponding to a concentration of 1 μM), bound to glutathione-sepharose beads, were incubated with 10 μM of each compound or 0.6% (170 mM) H2O2 in TSQ-assay buffer (10 mM sodium phosphate buffer pH7.0, 10% glycerol) for 2 hours at room temperature (200 μl total volume in 96-well plates). Immediately after addition of 100 μM TSQ, the increase in fluorescence was measured on a SLT Fluostar (355 nm excitation filter and 460 nm emission filter, Tecan, Salzburg).
Values given are % values of Zinc release. The relative fluorescence units (RFU) were normalized to the amount of zinc released by H2O2 (regarded as 100%). The concentration of compound used was 10 μM for C27–C35, 13 μM for C37–C83, H2O2 was used at 0.3% for C27–C35 and 0.2% for C37–C83.

[3] = test system: SiHa, HeLa, 444 and HaCat cells; experiment: Microscopic observation of cell viability (FIG. 4); assay type: cell-based, human; conditions: E6-dependent cells (SiHa and HeLa) vs E6-independent cells (444 and HaCat)
Description: FIG. 4 photographically depicts viability of SiHa, HeLa, 444 and HaCat cells when treated with C16 compound.
Cell viability and the cytotoxic specificity for a number of other compounds of Formula (I) and (II) were also determined.

[4] = test system: SiHa, Caski, HeLa; experiment: Cell viability (WST1 assay), cervical epithelial tumour cells; assay type: cell-based, human; conditions: 50 μM, treated 3 times in 3 days
From the text: All cell lines were obtained from the American Type Culture Collection (Manassas, Va.) unless otherwise noted. SiHa (human cervical epithelial tumor line, HPV16-positive), CaSki (human cervical epithelial tumor line, HPV16-positive), HaCat (immortalized human skin epithelial cell line, HPV-negative), HeLa (human cervical epithelial tumor line, HPV18-positive), 444 (hybrid of HeLa and fibroblast, HPV18-positive) obtained from Eric Stanbridge (Universitv of California, Irvine), MCF7 (human mammary epithelial tumor cell line, HPV-negative), HT3 (human cervical epithelial tumor cell line, HPV-negative) was obtained from the German Cancer Research Institute/DKFZ-Heidelberg, and HepG2, (human liver epithelial tumor cell line, HPV-negative), were grown in Dulbecco's modified Eagle medium (DMEM) supplemented with 10% fetal calf serum, 100 U penicillin and 1000 U streptomycin. Cells were allowed to attach to the surface of microwell dishes overnight and subsequently, incubated with medium containing the zinc ejecting compounds at the concentrations (10–100 μM). Viability of the cells was scored by measuring the absorption of the tetrazolium salt WST1 (Roche Molecular Biochemicals, Mannheim, Germany) in an Elisa-plate reader (Tecan, Salzburg, Austria) at a wavelength of 450 nm and a reference wavelength of 630 nm. […]

T2 sequence (P03126 whole entry): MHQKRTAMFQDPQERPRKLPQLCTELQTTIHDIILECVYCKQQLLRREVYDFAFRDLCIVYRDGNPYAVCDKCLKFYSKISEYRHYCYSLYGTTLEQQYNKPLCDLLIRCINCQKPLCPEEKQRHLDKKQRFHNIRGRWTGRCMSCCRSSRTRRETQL
T1 sequence (P03126 whole entry): as above

Q: What does the source list for `C1CN(SSN2CCOCC2)CCO1` [Compound C16]?
A: inhibitory activity for E6 binding to both E6BP and E6AP (BIACORE) [1]: inhibitory activity for E6 binding to both E6BP and E6AP; BIACORE (E6BP/E6AP) ([1]; 400 μM compound, 2 hrs at room temperature, GST-E6 7 μM in 10 mM GSH): + (compound interferes in binding of E6 with E6AP and E6BP, binding is less than 50% of the corresponding E6-DMSO value.); zinc release in original TSQ assays ([2]; GSH present at 5–10 mM): capable of releasing zinc; activation at 10 µM ([2]; read-out: TSQ % (% values of Zinc release)): 63.2%; microscopic observation of cells [3]: differential effect; inhibition of cell viability [4]: substantial and specific inhibition of cell viability
